# Data published in US20260000642A1 (Tay Therapeutics Limited, priority 2022, published 2026).
# Key:
# [1] = system: collagen-induced arthritis in Lewis rats; test: CIA model: histopathologic analysis of H&E-stained hind limbs; assay type: in vivo, Lewis rat
# Description: Hind limbs were collected following euthanasia, with the left limb being used for H&E staining.
# H&E-stained slides of designated tissues from animals were transferred to an independent pathologist for microscopic evaluation (SPFBio). Samples were assigned the histologic grades based on the severity of change from tissue where CIA was not induced. Histology grades assigned were as follows: grade 1 (minimal change), grade 2 (mild change), grade 3 (moderate change), grade 4 (marked change), and grade 5 (severe change).
# Moderate inflammation was also associated with increased edema fluid, fibrin, and cellular debris. Marked mixed cell inflammation was characterized by dense, widespread accumulations of neutrophils and macrophages with lesser number of lymphocytes within one or more joint spaces, synovium and periarticular soft tissues. Marked inflammation was also associated with abundant edema fluid, fibrin, and cellular debris.
# Marked granulation tissue (pannus) was associated with inflammation and was characterized by widespread fibrovascular connective tissue that expanded/replaced the periarticular soft tissues of one or more joints, extended into/expanded joint spaces, was contiguous with areas of erosion/ulcer in articular cartilage and/or increased eroded surface of bone, and variably extended along the diaphysis.
# Instances of minimal increased eroded surface were not associated with fragments of bone contiguous and/or surrounded by granulation tissue. […] In some areas, increased eroded surfaces were contiguous with areas of erosion/ulcer in the articular cartilages. Instance of marked increased eroded surface were often associated with fragments of bone contiguous with and/or surrounded by granulation tissue.
# This observation was typically most pronounced at joint margins (transition zone). The ulceration was often associated with inflammation and granulation tissue extending through the defect to the subchondral bone.
# Marked increased periosteal bone (periosteal bone formation) was characterized by extensive areas of increased bone matrix and numerous prominent osteoblasts lining trabecular surfaces along the metaphysis and/or diaphysis of one or more bones. In some areas, increased periosteal bone was contiguous with increased eroded surface and/or erosion/ulcer at articular cartilage.
# [2] = Plasma stability assay, human plasma; assay type: in vitro ADME; settings: 37° C., Method 1 (5 μM)
# [3] = system: Col1a1, TGF-b1, MCP-1, IL-1b, IL-6, IL-17, TNF-a, and Timp1; test: UUO model: kidney tissue biomarker mRNA by RT-PCR; assay type: in vivo, rat; settings: UUO rats; 30 mg/kg
# Excerpt: (§1) Serum for blood biochemistry analysis was collected into centrifuge tubes without coagulant four hours after final dosing. Blood plasma samples from group 3 was collected into tubes with K2EDTA four hours after final dosing. At the conclusion of the study (end of the 14-day period), animals were euthanized. Kidney tissue was collected four hours after final dosing. Ligated side kidney was divided into three copies 1/3 fix into 10% formalin for H&E analysis, 1/3 into RNA for PCR analysis of tissue biomarkers Col1a1, TGF-b1, MCP-1, IL-1b, IL-6, IL-17, TNF-a, and Timp1, and 1/3 for hydroxyproline assay analyzed by ELISA. RNA was extracted from tissue using the RNeasy mini kit (Qiagen). RNA concentration was measured using a NanoDrop One Spectrophotometer (ThermoFisher) and converted to cDNA using a High-Capacity RNA-to-cDNA kit (Invitrogen). RT-PCR was performed to measure levels of mRNA of different targets using TaqMan® Gene Expression Master Mix and TaqMan® probe/primer sets on a QuantStudio 6 Real-Time PCR System (ThermoFisher). Fold change in target gene expression was determined using the ΔΔCt method.
# IL-17A = test: Human PBMC assay, IL-17A by ELISA (CD2/CD3/CD28 bead stimulation); assay type: cell-based; settings: 72 hours
# Description: (§2) CD2, CD3, and CD28 antibody-coated beads from the T-cell activation/expansion kit (Miltenyi Biotec) were added to the PBMC at a bead-to-cell ratio of 1:2. The mixture of PBMCs and beads were seeded into the wells of the round-bottom 96-well plate at a concentration of 2×10^5 cells/well in a total volume of 200 μL. The cells were cultured for 72 hours at 37° C. and 5% CO2 and then supernatants were collected and IL-17A and IL-22 levels were measured by ELISA. […] The final compound concentration ranged from 30,000 nM to 0.005 nM and the final DMSO concentration per well was 0.3%. PBMCs were seeded at approximately […] in the wells of the 96-well tissue culture plate in a total volume of 190 μL. The plate was incubated for 1 hour at 37° C. and 5% CO2. […] The cells were then cultured for 24 hours at 37° C. and 5% CO2. The supernatant was collected and CXCL10 levels were measured by ELISA.
# IL-22 = test: Human PBMC assay, IL-22 by ELISA (CD2/CD3/CD28 bead stimulation); assay type: cell-based; settings: 72 hours
# Description: as §2
# CXCL10 = test: Human PBMC assay, CXCL10 by ELISA (IFN-γ stimulation); assay type: cell-based
# Description: The impact of Examples 23, 80, and 101 on IL-17A, IL-22, and CXCL10 levels was analyzed in cryopreserved human peripheral blood mononuclear cells (PBMC) by ELISA.
# For IL-17A and IL-22 assays, Examples 23, 80, and 101 were serially diluted from 10 mM in DMSO and further diluted in assay media to 100× the required final concentration, of which, 2 μL was added per well to a round-bottom 96-well tissue culture plate where the final DMSO concentration per well was 0.1%. CD2, CD3, and CD28 antibody-coated beads from the T-cell activation/expansion kit (Miltenyi Biotec) were added to the PBMC at a bead-to-cell ratio of 1:2. The mixture of PBMCs and beads were seeded into the wells of the round-bottom 96-well plate at a concentration of 2×10^5 cells/well in a total volume of 200 μL. The cells were cultured for 72 hours at 37° C. and 5% CO2 and then supernatants were collected and IL-17A and IL-22 levels were measured by ELISA. For the CXCL10 assay, Examples 23, 80, and 101 were serially diluted from 10 mM in DMSO and further diluted in assay media to 100× the required final concentration, of which 2 μL was added per well to a 96-well tissue culture plate. The final compound concentration ranged from 30,000 nM to 0.005 nM and the final DMSO concentration per well was 0.3%. PBMCs were seeded at approximately […] in the wells of the 96-well tissue culture plate in a total volume of 190 μL. The plate was incubated for 1 hour at 37° C. and 5% CO2. The cells were then stimulated with IFN-γ (15 ng/mL final concentration) in a volume of 10 μL. The cells were then cultured for 24 hours at 37° C. and 5% CO2. The supernatant was collected and CXCL10 levels were measured by ELISA.
# hydroxyproline = test: UUO model: kidney hydroxyproline by ELISA; assay type: in vivo, rat; settings: UUO rats; 30 mg/kg; compared with sham and UUO + vehicle
# Excerpt: as §1
# UUO model: serum urea = assay type: in vivo, rat; settings: UUO rats; 30 mg/kg; compared with sham and UUO + vehicle
# Excerpt: as §1
# [4] = CIA rats, 30 mg/kg (Group 7), seven of eight samples
# [5] = hind limbs, CIA induced, 8 animals examined, comparator groups 3-4, dose not given
structure (smiles),measurement,setting,value
"CNC(=O)c1[nH]c(C(=O)NC2CCC2)cc1O[C@@H](C)c1ccccc1 [Example 101, N^5-cyclobutyl-N^2-methyl-3-(1-phenylethoxy)-1H-pyrrole-2,5-dicarboxamide]",articular cartilage erosion or ulcers,"[1]; CIA rats, 3 mg/kg (Group 5)",mild to moderate
same,granulation tissue (pannus),"[1]; CIA rats, 3 mg/kg (Group 5)",mild to moderate
same,increased eroded surface of bone (bone resorption),"[1]; CIA rats, 3 mg/kg (Group 5)",mild to moderate
same,increased periosteal bone (periosteal bone formation),"[1]; CIA rats, 3 mg/kg (Group 5)",mild to moderate
same,mixed cell inflammation,"[1]; CIA rats, 3 mg/kg (Group 5)",moderate to marked
same,erosion in the articular cartilages,"[1]; CIA rats, 10 mg/kg (Group 6)",moderate
same,granulation tissue (pannus),"[1]; CIA rats, 10 mg/kg (Group 6)",moderate
same,increased eroded surface of bone (bone resorption),"[1]; CIA rats, 10 mg/kg (Group 6)",moderate
same,increased periosteal bone (periosteal bone formation),"[1]; CIA rats, 10 mg/kg (Group 6)",moderate
same,mixed cell inflammation,"[1]; CIA rats, 10 mg/kg (Group 6)",moderate
same,samples with no recorded pathological observations,"[1]; CIA rats, 30 mg/kg (Group 7)",One out of eight samples
same,erosion in the articular cartilages,[1]; [4],mild
same,granulation tissue (pannus),[1]; [4],moderate
same,increased eroded surface of bone (bone resorption),[1]; [4],mild
same,increased periosteal bone (periosteal bone formation),[1]; [4],mild
same,mixed cell inflammation,[1]; [4],moderate
same,pathologic observations after microscopic evaluation (overall),"[1]; CIA rats, Groups 5-7 (3, 10, 30 mg/kg)",at lower levels relative to samples from animals in the CIA-induced group (Group 2) in a dose-dependent manner
same,"Erosion/Ulcer, cartilaginous, Mild, number of animals","[1]; hind limbs, CIA induced, 8 animals examined, 30 mg/kg (Group 7)",4
same,Plasma Stability (% remaining at 120 minutes) Human,[2],93%
same,expression of IL-17 relative to UUO + vehicle,[3],limited effect
same,expression of TNF-a relative to UUO + vehicle,[3],limited effect
same,tissue RNA level of Col1a1 relative to UUO + vehicle,[3],reduced
same,tissue RNA level of IL-1b relative to UUO + vehicle,[3],reduced
same,tissue RNA level of IL-6 relative to UUO + vehicle,[3],reduced
same,tissue RNA level of MCP-1 relative to UUO + vehicle,[3],reduced
same,tissue RNA level of TGB-b1 relative to UUO + vehicle,[3],reduced
same,tissue RNA level of Timp1 relative to UUO + vehicle,[3],reduced
same,IC50 for IL-17A relative to GSK620,IL-17A,substantially lower 1050
same,IC50 for IL-22 relative to GSK620,IL-22,substantially lower 1050
same,selectivity to induction of CXCL10 relative to IL-17A and IL-22,CXCL10,showed selectivity
same,IC50 for CXCL-10 relative to GSK620,"CXCL10; IFN-γ, 24 hours, ELISA",substantially lower 1050
same,hydroxyproline levels,hydroxyproline,No significant differences
same,serum urea levels,UUO model: serum urea,No significant differences
C[C@@H]1C[C@H]2[C@@H]3CCC4=CC(=O)C=C[C@]4(C)[C@@]3(F)[C@@H](O)C[C@]2(C)[C@@]1(O)C(=O)CO [dexamethasone],"Erosion/Ulcer, cartilaginous, Marked, number of animals",[1]; [5],0
same,"Erosion/Ulcer, cartilaginous, Mild, number of animals",[1]; [5],0
same,"Erosion/Ulcer, cartilaginous, Minimal, number of animals",[1]; [5],0
same,"Erosion/Ulcer, cartilaginous, Moderate, number of animals",[1]; [5],0
same,"Granulation tissue, Marked, number of animals",[1]; [5],0
same,"Granulation tissue, Mild, number of animals",[1]; [5],0
same,"Granulation tissue, Minimal, number of animals",[1]; [5],0
same,"Granulation tissue, Moderate, number of animals",[1]; [5],0
same,"Increased bone, periosteum, Marked, number of animals",[1]; [5],0
same,"Increased bone, periosteum, Mild, number of animals",[1]; [5],0
same,"Increased bone, periosteum, Minimal, number of animals",[1]; [5],0
same,"Increased bone, periosteum, Moderate, number of animals",[1]; [5],0
same,"Increased eroded surface, bone, Marked, number of animals",[1]; [5],0
same,"Increased eroded surface, bone, Mild, number of animals",[1]; [5],0
same,"Increased eroded surface, bone, Minimal, number of animals",[1]; [5],0
same,"Increased eroded surface, bone, Moderate, number of animals",[1]; [5],0
same,"Mixed cell inflammation, Marked, number of animals",[1]; [5],0
same,"Mixed cell inflammation, Mild, number of animals",[1]; [5],0
same,"Mixed cell inflammation, Minimal, number of animals",[1]; [5],0
same,"Mixed cell inflammation, Moderate, number of animals",[1]; [5],0
same,"No Visible Lesions, number of animals",[1]; [5],8
